Among the data in patent US6432881B1 (dated 2002) are melting point values, retold here.

In the case of `Cn1nccc1OCc1c(S(C)(=O)=O)ccc(C(=O)C2C(=O)CC(C)(C)CC2=O)c1Cl` (hydrate or solvate), the melting point (in general, the temperature of the solid-liquid transition) stood at 82 °C.
